Measurements: PubChem BioAssay (NCI)
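Tested at 5 concentrations; 48 h exposure; 96-well plates; endpoints linearly interpolated, else capped at highest concentration. GI50: concentration for 50% inhibition of growth. At the TGI there is no net growth.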

What was measured:
Assay in all cases: growth of human tumour cells (NCI), 48 h
[1] = system: SW-620 colon
[2] = system: ACHN renal
[3] = system: SN12C renal
[4] = system: HT29 colon
[5] = system: CCRF-CEM leukemia
[6] = system: MOLT-4 leukemia
[7] = system: HOP-92 NSCLC
[8] = system: CAKI-1 renal
[9] = system: MDA-MB-435
[10] = system: HS 578T breast
[11] = system: NCI-H226 lung
[12] = system: SNB-75 CNS
[13] = system: HCC-2998 colon
[14] = system: A498 renal
[15] = system: SR leukemia
[16] = system: PC-3 prostate
[17] = system: 786-0 renal
[18] = system: T-47D breast
[19] = system: SK-OV-3 ovarian
[20] = system: A549 NSCLC
[21] = system: OVCAR-4 ovarian
[22] = system: NCI-H23 lung
[23] = system: MCF7 breast
[24] = system: OVCAR-8 ovarian
[25] = system: U251 CNS
[26] = system: MDA-MB-231 breast
[27] = system: HOP-62 NSCLC
[28] = system: MALME-3M melanoma
[29] = system: RXF 393 renal
[30] = system: EKVX NSCLC
[31] = system: OVCAR-5 ovarian
[32] = system: UO-31 renal
[33] = system: M14 melanoma
[34] = system: HCT-116 colon
[35] = system: NCI/ADR-RES ovarian
[36] = system: SF-268 CNS
[37] = system: NCI-H460 lung
[38] = system: UACC-257 melanoma
[39] = system: SK-MEL-2 melanoma
[40] = system: SNB-19 CNS
[41] = system: SF-295 CNS
[42] = system: SF-539 CNS
[43] = system: HCT-15 colon
[44] = system: TK-10 renal
[45] = system: COLO 205 colon
[46] = system: HL-60(TB) leukemia
[47] = system: KM12 colon
[48] = system: SK-MEL-5 melanoma
[49] = system: IGROV1 ovarian
[50] = system: SK-MEL-28 melanoma
[51] = system: BT-549 breast
[52] = system: DU-145 prostate
[53] = system: K-562 leukemia
[54] = system: RPMI-8226 leukemia
[55] = system: UACC-62 melanoma
[56] = system: OVCAR-3 ovarian

In the case of `C#C[C@]1(O)CC[C@H]2[C@@H]3CC=C4c5sc(Nc6cc(C)cc(C)c6)nc5CC[C@]4(C)[C@H]3CC[C@@]21C`, the GI50 [1] is reported as 2.12 µM, the TGI [1] is reported as 4.89 µM and the GI50 [2] is reported as 3.72 µM. For the same compound, the TGI [2] was 20.5 µM, the GI50 [3] was 8.38 µM and the TGI [3] was 30.5 µM. The GI50 [4] was 1.65 µM, the TGI [4] was 4.32 µM and the GI50 [5] was 1.7 µM. For the same compound, the TGI [5] was 8.43 µM, the GI50 [6] was 0.555 µM and the TGI [6] was 5.83 µM. The GI50 [7] was 3.17 µM, the TGI [7] was 13.6 µM and the GI50 [8] was 2.69 µM. The TGI [8] was 15 µM, the GI50 [9] was 2.83 µM and the TGI [9] was 12.4 µM. It also gave a GI50 [10] of 0.526 µM, a TGI [10] of 5.89 µM and a GI50 [11] of 2.29 µM. For the same compound, the TGI [11] was 7.99 µM, the GI50 [12] was 0.547 µM and the TGI [12] was 7.91 µM. It also gave a GI50 [13] of 5.47 µM, a TGI [13] of 23 µM and a GI50 [14] of 0.791 µM. For the same compound, the TGI [14] was 2.98 µM, the GI50 [15] was 1.17 µM and the TGI [15] was 5.88 µM. For the same compound, the GI50 [16] was 1.53 µM, the TGI [16] was 11.9 µM and the GI50 [17] was 0.429 µM. It also gave a TGI [17] of 2.28 µM, a GI50 [18] of 3.4 µM and a TGI [18] of 85.8 µM. The GI50 [19] was 2.23 µM, the TGI [19] was 7.94 µM and the GI50 [20] was 4.08 µM. For the same compound, the TGI [20] was 28.5 µM, the GI50 [21] was 4.63 µM and the TGI [21] was > 100 µM. For the same compound, the GI50 [22] was 2.87 µM, the TGI [22] was 17 µM and the GI50 [23] was 1.61 µM. For the same compound, the TGI [23] was 6.22 µM, the GI50 [24] was 7.08 µM and the TGI [24] was > 100 µM. For the same compound, the GI50 [25] was 1.09 µM, the TGI [25] was 18.4 µM and the GI50 [26] was 2.96 µM. The TGI [26] was 15.1 µM, the GI50 [27] was 2.55 µM and the TGI [27] was 20.1 µM. For the same compound, the GI50 [28] was 1.87 µM, the TGI [28] was 5.6 µM and the GI50 [29] was 0.142 µM. It also gave a TGI [29] of 0.428 µM, a GI50 [30] of 3.12 µM and a TGI [30] of 31.3 µM. The GI50 [31] was 3.69 µM, the TGI [31] was 15.8 µM and the GI50 [32] was 2.72 µM. It also gave a TGI [32] of 9.7 µM, a GI50 [33] of 1.58 µM and a TGI [33] of 6.87 µM. For the same compound, the GI50 [34] was 1.98 µM, the TGI [34] was 10.1 µM and the GI50 [35] was 4.86 µM. For the same compound, the TGI [35] was 45.5 µM, the GI50 [36] was 2.54 µM and the TGI [36] was 20.2 µM. It also gave a GI50 [37] of 2.72 µM, a TGI [37] of 13 µM and a GI50 [38] of 3.07 µM. It also gave a TGI [38] of 21.7 µM, a GI50 [39] of 1.46 µM and a TGI [39] of 10.3 µM. The GI50 [40] was 2 µM, the TGI [40] was 11.6 µM and the GI50 [41] was 0.297 µM. The TGI [41] was 0.966 µM, the GI50 [42] was 0.392 µM and the TGI [42] was 1.71 µM. For the same compound, the GI50 [43] was 1.88 µM, the TGI [43] was 5.58 µM and the GI50 [44] was 9.87 µM. The TGI [44] was 36.5 µM, the GI50 [45] was 2.42 µM and the TGI [45] was 5.9 µM. The GI50 [46] was 1.29 µM, the TGI [46] was 5.55 µM and the GI50 [47] was 2.6 µM. For the same compound, the TGI [47] was 8.05 µM, the GI50 [48] was 1.65 µM and the TGI [48] was 3.15 µM. The GI50 [49] was 4.85 µM, the TGI [49] was 60.6 µM and the GI50 [50] was 1.07 µM. For the same compound, the TGI [50] was 2.95 µM, the GI50 [51] was 0.556 µM and the TGI [51] was 5.82 µM. For the same compound, the GI50 [52] was 4.18 µM, the TGI [52] was 21.8 µM and the GI50 [53] was 1.58 µM. The TGI [53] was 4.33 µM, the GI50 [54] was 0.272 µM and the TGI [54] was 0.823 µM. It also gave a GI50 [55] of 1.69 µM, a TGI [55] of 4.1 µM and a GI50 [56] of 3.59 µM. For the same compound, the TGI [56] was 16.9 µM.
